In article PMC11148080, “Ru(II)-based complexes containing 2-thiouracil derivatives suppress liver cancer stem cells by targeting NF-κB and Akt/mTOR signaling” (Cell Death Discovery, 2024):
“And” between values parts separate entries of the source, which are not always exact repeats. Equal entries are not always repeated.

Experiments:
Assay type in all cases: cell-based, human
HepG2 cells [1] = test: CD133 and CD44 expression by flow cytometry; conditions: 24 h; 8 μM complex 1 or 6 μM complex 2
Protocol: To stain the cell surface proteins, the cells were washed with an incubation buffer (0.5% bovine serum albumin in PBS), and then antibodies were added and incubated for 1 h at room temperature. The cells were then washed with PBS, and the fluorescence signal was measured by flow cytometry. CD133 and CD44 were quantified in YO-PRO-1 (Sigma‒Aldrich Co.) negative cells.
For all flow cytometry analyses, cellular fluorescence was measured using a BD LSRFortessa cytometer, BD FACSDiva software (BD Biosciences) and FlowJo software 10 (FlowJo LLC; Ashland, OR, USA). A minimum of 10,000 events were obtained per sample for intracellular staining, and a minimum of 30,000 events per sample were acquired for cell surface protein staining. Doublets were removed using FSC-A vs FCS-H and SCC-A vs SCC-H. Cellular debris was excluded from the analysis.

HepG2 cells [2] = test: PARP (Asp214) cleavage by flow cytometry; conditions: HepG2, 24 h; 8 μM complex 1, 6 μM complex 2
Protocol: To stain intracellular proteins, the cells were harvested and resuspended in 0.5-1 mL of 4% formaldehyde for 10 min at 37 °C. The tube was then placed on ice for 1 min, after which the cells were prechilled and permeabilized using a sequence of 100% (30 min) to 90% (30 min) methanol with gentle mixing. After washing with incubation buffer (0.5% bovine serum albumin in PBS), primary antibodies were added and incubated for 1 h at room temperature. Finally, the cells were washed with PBS, and flow cytometry was used to measure cell fluorescence.

HepG2 cells [3] = test: qPCR array gene expression; parameters: key to RQ MTOR / RQ GSTP1 / RQ TXN / RQ TXNRD1 / RQ CTSS / RQ TOP2B / RQ NFKB1 / RQ HDAC1 / RQ AURKC / RQ NTN3 / RQ HDAC6 / RQ TNKS: RQ by 2^-ΔΔCT, fold vs 0.2% DMSO calibrator (=1); key to RQ BCL2 / RQ BIRC5 / RQ ERBB2 / RQ ERBB3 / RQ IGF1R / RQ CTSD / RQ ESR1 / RQ CDC25A / RQ HIF1A / RQ CDK9 / RQ MDM2 / RQ TP53 / RQ KRAS / RQ HDAC11 / RQ HDAC8: fold change by 2^-ΔΔCT vs 0.2% DMSO calibrator (=1); conditions: 12 h; 8 µM complex 1, 6 µM complex 2
Protocol: Total RNA was extracted using the RNeasy Plus Mini Kit (Qiagen; Hilden, Germany) following the manufacturer’s instructions. A NanoDrop® 1000 spectrophotometer (Thermo Fisher Scientific, Waltham, Massachusetts, USA) was used to quantify and assess the purity of the RNA. Reverse transcription was performed using the Superscript VILOTM enzyme (Invitrogen Corporation; Waltham, MA, USA), and a TaqMan® array human cancer drug target 96-well plate, fast (ID RPRWENH, Applied BiosystemsTM, Foster City, CA, USA) was used for the gene expression study by qPCR (ABI ViiA7, Applied Biosystems instrument). The cycle conditions were 2 min at 50 °C, 10 min at 95 °C, and 40 cycles of 15 s at 95 °C and 1 min at 60 °C. All the experiments were conducted under DNase/RNase-free conditions. The 2^-ΔΔCT method was used to calculate the relative quantification (RQ) of mRNA expression using Gene Expression SuiteTM Software (Applied BiosystemsTM). Cells treated with the negative control (0.2% DMSO) were used as a calibrator, and the RQs of the reference genes GAPDH, UBC and RPLP0 were used to normalize the responses.

HepG2 cells [4] = test: Transwell migration assay; conditions: same concentrations (0.5 μM complex 1, 0.3 μM complex 2), 24 h
Protocol: Transwell plates were used for the cell migration assay, as previously described. The cells were initially incubated in serum-free media for 24 h. We used uncoated cell culture inserts in 6-well plates ([…]; Corning, USA). The upper chamber received 1.5 mL of serum-free medium, whereas the bottom chamber received 2 mL of medium containing 20% FBS. Cotton swabs were used to remove cells that remained in the top chamber after 24 h. The cells on the bottom surface of the membrane were fixed in 4% paraformaldehyde and stained with 0.5% crystal violet. The cells were imaged and counted using an optical microscope (Leica, DMI8).

For `F[P-](F)(F)(F)(F)F.O=c1cc[nH]c([S][Ru+])n1.c1ccc(-c2ccccn2)nc1.c1ccc(P(c2ccccc2)c2ccccc2)cc1.c1ccc(P(c2ccccc2)c2ccccc2)cc1` [Complex 1, trans-[Ru(2TU)(PPh3)2(bipy)]PF6], the “percentage of HepG2 CD133-positive cells” value (HepG2 cells [1]) was “reduced”, the “PARP (Asp214) cleavage” value (HepG2 cells [2]) was “increased levels” and the “RQ ABCC1” value (HepG2 cells [3]) was 2.226. The “RQ AKT1” value (HepG2 cells [3]) was 0.775, the “RQ AKT2” value (HepG2 cells [3]) was 0.889 and the “RQ ATF2” value (HepG2 cells [3]) was 1.702. For the same compound, the “RQ AURKA” value (HepG2 cells [3]) was 0.691, the “RQ AURKB” value (HepG2 cells [3]) was 0.759 and the “RQ AURKC” value (HepG2 cells [3]) was 1.565. For the same compound, the “RQ BCL2” value (HepG2 cells [3]) was 1.602, the “RQ BIRC5” value (HepG2 cells [3]) was 0.800 and the “RQ CDC25A” value (HepG2 cells [3]) was 2.454. The “RQ CDK1” value (HepG2 cells [3]) was 0.664, the “RQ CDK2” value (HepG2 cells [3]) was 0.777 and the “RQ CDK4” value (HepG2 cells [3]) was 1.130. The “RQ CDK5” value (HepG2 cells [3]) was 0.572, the “RQ CDK7” value (HepG2 cells [3]) was 2.521 and the “RQ CDK8” value (HepG2 cells [3]) was 2.592. For the same compound, the “RQ CDK9” value (HepG2 cells [3]) was 0.937, the “RQ CTSB” value (HepG2 cells [3]) was 0.797 and the “RQ CTSD” value (HepG2 cells [3]) was 1.503. For the same compound, the “RQ CTSL” value (HepG2 cells [3]) was 1.271, the “RQ CTSS” value (HepG2 cells [3]) was 1.314 and the “RQ EGFR” value (HepG2 cells [3]) was 1.217. The “RQ ERBB2” value (HepG2 cells [3]) was 0.682, the “RQ ERBB3” value (HepG2 cells [3]) was 0.915 and the “RQ ESR1” value (HepG2 cells [3]) was 0.564. The “RQ ESR2” value (HepG2 cells [3]) was 2.165, the “RQ GRB2” value (HepG2 cells [3]) was 1.501 and the “RQ GSTP1” value (HepG2 cells [3]) was 0.499 and 0.49. The “RQ HDAC1” value (HepG2 cells [3]) was 0.833, the “RQ HDAC2” value (HepG2 cells [3]) was 1.190 and the “RQ HDAC3” value (HepG2 cells [3]) was 0.989. For the same compound, the “RQ HDAC4” value (HepG2 cells [3]) was 0.764, the “RQ HDAC6” value (HepG2 cells [3]) was 0.564 and the “RQ HDAC7” value (HepG2 cells [3]) was 1.008. The “RQ HDAC8” value (HepG2 cells [3]) was 0.970, the “RQ HDAC11” value (HepG2 cells [3]) was 1.729 and the “RQ HIF1A” value (HepG2 cells [3]) was 3.170. For the same compound, the “RQ HRAS” value (HepG2 cells [3]) was 0.753, the “RQ HSP90AA1” value (HepG2 cells [3]) was 2.760 and the “RQ HSP90B1” value (HepG2 cells [3]) was 3.676. For the same compound, the “RQ IGF1R” value (HepG2 cells [3]) was 0.916, the “RQ KRAS” value (HepG2 cells [3]) was 1.809 and the “RQ MDM2” value (HepG2 cells [3]) was 1.685. The “RQ MDM4” value (HepG2 cells [3]) was 2.263, the “RQ MTOR” value (HepG2 cells [3]) was 0.395 and 0.39 and the “RQ NFKB1” value (HepG2 cells [3]) was 0.451 and 0.45. For the same compound, the “RQ NRAS” value (HepG2 cells [3]) was 0.908, the “RQ NTN3” value (HepG2 cells [3]) was 5.849 and the “RQ PARP1” value (HepG2 cells [3]) was 0.638. For the same compound, the “RQ PARP4” value (HepG2 cells [3]) was 0.801, the “RQ PDGFRB” value (HepG2 cells [3]) was 0.964 and the “RQ PGR” value (HepG2 cells [3]) was 8.929. For the same compound, the “RQ PIK3C2A” value (HepG2 cells [3]) was 0.855, the “RQ PIK3C3” value (HepG2 cells [3]) was 1.001 and the “RQ PIK3CA” value (HepG2 cells [3]) was 0.817. For the same compound, the “RQ PLK1” value (HepG2 cells [3]) was 0.520, the “RQ PLK2” value (HepG2 cells [3]) was 1.630 and the “RQ PLK3” value (HepG2 cells [3]) was 2.378. The “RQ PLK4” value (HepG2 cells [3]) was 0.743, the “RQ PRKCA” value (HepG2 cells [3]) was 1.667 and the “RQ PRKCB” value (HepG2 cells [3]) was 0.327. The “RQ PRKCD” value (HepG2 cells [3]) was 0.661, the “RQ PRKCE” value (HepG2 cells [3]) was 2.615 and the “RQ PTGS2” value (HepG2 cells [3]) was 7.499. The “RQ RHOA” value (HepG2 cells [3]) was 0.642, the “RQ RHOB” value (HepG2 cells [3]) was 0.437 and the “RQ TERT” value (HepG2 cells [3]) was 0.604. The “RQ TNKS” value (HepG2 cells [3]) was 3.189, the “RQ TOP2A” value (HepG2 cells [3]) was 0.469 and the “RQ TOP2B” value (HepG2 cells [3]) was 0.499. The “RQ TP53” value (HepG2 cells [3]) was 1.021, the “RQ TXN” value (HepG2 cells [3]) was 0.546 and the “RQ TXNRD1” value (HepG2 cells [3]) was 1.341. For the same compound, the “motility, transwell cell migration” value (HepG2 cells [4]) was “reduced motility”.
